# Source: patent US20040242871A1, “Novel arylheteroalkylamine derivatives” (priority 2001, published 2004)
row,melting point [°C],SMILES
1,206 to 208,"CNc1cc(S[C@H](C[C@H](N)CO)c2ccccc2)c(C#N)cn1.Cl.Cl [Example 26, 4-[[(1R,3S)-3-Amino-4-hydroxy-1-phenylbutyl]thio]-6-(methylamino)-3-pyridinecarbonitrile dihydrochloride]"
2,213 to 228,"COc1cc(S[C@@H](C[C@H](N)CO)c2ccccc2)c(C#N)cn1.O=C(O)/C=C/C(=O)O [Example 13, 4-[[(1S,3S)-3-Amino-4-hydroxy-1-phenylbutyl]thio]-6-methoxy-3-pyridinecarbonitrile (E)-butenedioate]"
3,80,"CC(C)(O)[C@@H](N)C[C@@H](Oc1cc(Cl)c(F)cc1C#N)c1ccccc1.O=C(O)C(=O)O [Example 47, 2-[[(1R,3S)-3-Amino-4-hydroxy-4-methyl-1-phenylpentyl]oxy]-4-chloro-5-fluoro benzonitrile ethanedioate]"
4,238 to 240,"Cl.Cl.N#Cc1ccc(C(F)(F)F)cc1S[C@H](C[C@H](N)CO)c1cccnc1 [Example 55, 2-[[(1R,3S)-3-Amino-4-hydroxy-1-(3-pyridinyl)butyl]thio]-4-(trifluoromethyl)benzonitrile dihydrochloride]"
5,55 to 80,"CCN[C@H](CO)C[C@@H](Oc1cc(Cl)c(F)cc1C#N)c1nccs1.O=C(O)C(=O)O [Example 44, 4-Chloro-2-[[(1R,3S)-3-(ethylamino)-4-hydroxy-1-(2-thiazolyl)butyl]oxy]-5-fluoro-benzonitrile ethanedioate salt]"
6,171 to 172,"CCC[C@@H](C[C@H](N)CO)Oc1cc(Cl)c(F)cc1C#N.O=C(O)C(=O)O [Example 48, 2-[[(1S,3S)-3-Amino-4-hydroxy-1-propylbutyl]oxy]-4-chloro-5-fluorobenzonitrile ethanedioate]"
7,120 to 130,"Cl.N#Cc1ccc(Cl)cc1S[C@H](C[C@H](N)CO)c1cncnc1 [Example 56, 2-[[(1R,3S)-3-Amino-4-hydroxy-1-(5-pyrimidyl)butyl]thio]-4-chlorobenzonitrile hydrochloride]"
8,177 to 178,"N#Cc1cc(F)c(Cl)cc1O[C@H](C[C@H](N)CO)c1scnc1Cl.O=C(O)/C=C/C(=O)O [Example 61, 2-[[(1R,3S)-3-Amino-1-(4-chloro-5-thiazolyl)-4-hydroxybutyl]oxy]-4-chloro-5-fluorobenzonitrile (E)-butenedioate salt]"
9,221 to 223,"COc1cc(S[C@H](C[C@@H](N)CO)c2ccccc2)c(C#N)cn1.O=C(O)/C=C/C(=O)O [Example 11, 4-[[(1R,3R)-3-Amino-4-hydroxy-1-phenylbutyl]thio]-6-methoxy-3-pyridinecarbonitrile (E)-butenedioate]"
10,109 to 114,"N#Cc1ccc(C(F)(F)F)nc1O[C@H](C[C@H](N)CO)c1ccc(F)cc1.O=C(O)C(=O)O [Example 36, 2-[[(1R,3S)-3-Amino-1-(4-fluorophenyl)-4-hydroxybutyl]oxy]-6-trifluoromethyl-3-pyridinecarbonitrile ethanedioate]"
11,278 to 280,"Cl.Cl.N#Cc1ccc(Br)cc1S[C@H](C[C@H](N)CO)c1cccnc1 [Example 58, 2-[[(1R,3S)-3-Amino-4-hydroxy-1-(3-pyridyl)butyl]thio]-4-bromobenzonitrile dihydrochloride]"
12,191 to 193,"COc1cc(S[C@H](C[C@H](N)CO)c2ccccc2)c(Cl)cn1 [Example 28, (β^1S,β^1R) β-Amino-δ-[(5-chloro-2-methoxy-4-pyridinyl)thio]-benzenebutanol (E)-2-butenedioate]"
13,78,"CC(=O)c1ccc(C#N)c(S[C@H](C[C@H](N)CO)c2ccccc2)n1.Cl [Example 20, 6-Acetyl-2-[[(1R,3S)-3-amino-4-hydroxy-1-phenylbutyl]thio]-3-pyridinecarbonitrile Hydrochloride]"
14,150 to 152,"Cc1ccc(C#N)c(SC(C[C@H](N)CO)c2ccno2)n1.O=C(O)/C=C/C(=O)O (stereo partly drawn) [Example 51, 2-[[(3S)-3-Amino-4-hydroxy-1-(5-isoxazolyl)butyl]thio]-6-methyl-3-pyridinecarbonitrile (E)-butenedioate]"
15,172 to 173,"COc1cc(S[C@H](C[C@H](N)CO)c2ccccc2)c(C#N)cn1 [Example 10, 4-[[(1R,3S)-3-Amino-4-hydroxy-1-phenylbutyl-]thio]-6-methoxy-3-pyridinecarbonitrile (E)-butenedioate]"
16,178 to 180,"COc1cc(S[C@H](C[C@H](N)CO)c2ccccc2)c(Br)cn1 [Example 27, (β^1S,β^1R)-β-Amino-δ-[(5-bromo-2-methoxy-4-pyridinyl)thio]-benzenebutanol (E)-2-butenedioate]"
17,148 to 150,"Cc1nc(O[C@H](C[C@H](N)CO)c2nccs2)c(C#N)cc1F.Cl [Example 59, 2-[[(1R,3S)-3-Amino-4-hydroxy-1-(2-thiazolyl)butyl]oxy]-5-fluoro-6-methyl-3-pyridinecarbonitrile hydrochloride]"
18,179 to 185,"COc1cc(S[C@H](C[C@H](N)CO)c2ccccc2F)c(C#N)cn1.O=C(O)C(=O)O [Example 35, 4-[[(1R,3S)-3-Amino-1-(2-fluorophenyl)-4-hydroxybutyl]thio]-6-methoxy-3-pyridinecarbonitrile ethanedioate]"
19,67 to 69,"N#Cc1cccnc1S[C@H](C[C@H](N)CO)c1ccccc1.O=C(O)/C=C/C(=O)O [Example 22, 2-[[(1R,3S)-3-Amino-4-hydroxy-1-phenylbutyl]thio]-3-pyridinecarbonitrile (E)-butenedioate]"
20,142 to 144,"N#Cc1ccc(S[C@H](C[C@H](N)CO)c2ccccc2)c(Cl)c1.O=C(O)C(=O)O [Example 43, 4-[[(1R,3S)-3-Amino-4-hydroxy-1-phenylbutyl]thio]-3-chlorobenzonitrile ethanedioate]"
21,169.5 to 171.5,"CCOc1cc(S[C@H](C[C@H](N)CO)c2ccccc2)c(C#N)cn1 [Example 29, 4-[[(1R,3S)-3-Amino-4-hydroxy-1-phenylbutyl]thio]-6-ethoxy-3-pyridinecarbonitrile. (E)-butenedioate]"
22,163 to 165,"N#Cc1cc(F)ccc1O[C@H](C[C@H](N)CO)c1cncs1.O=C(O)/C=C/C(=O)O [Example 45, 2-[[(1R,3S)-3-Amino-4-hydroxy-1-(5-thiazolyl)butyl]oxy]-5-fluoro-benzonitrile (2E)-2-butenedioate]"
23,162.5 to 163,"COc1cc(S[C@@H](C[C@@H](N)CO)c2ccccc2)c(C#N)cn1.O=C(O)/C=C/C(=O)O [Example 12, 4-[[(1S,3R)-3-Amino-4-hydroxy-1-phenylbutyl]thio]-6-methoxy-3-pyridinecarbonitrile, (E)-butenedioate]"
24,144 to 146,"N#Cc1cnc(OC(F)F)cc1S[C@H](C[C@H](N)CO)c1ccccc1.O=C(O)/C=C/C(=O)O [Example 14, 4-[[(1R,3S)-3-Amino-4-hydroxy-1-phenylbutyl]thio]-6-(difluoromethoxy)-3-pyridinecarbonitrile (E)-butenedioate]"
25,147 to 149,"N#Cc1ncc(C(F)(F)F)cc1S[C@H](C[C@H](N)CO)c1ccccc1.O=C(O)C(=O)O [Example 30, 3-[[(1R,3S)-3-Amino-4-hydroxy-1-phenylbutyl]thio]-5-(trifluoromethyl)-2-pyridinecarbonitrile ethanedioate]"
26,252 to 255,"Cl.Cl.N#Cc1cc(F)c(Cl)cc1S[C@H](C[C@H](N)CO)c1cccnc1 [Example 57, 2-[[(1R,3S)-3-Amino-4-hydroxy-1-(3-pyridinyl)butyl]thio]-4-chloro-5-fluorobenzonitrile dihydrochloride]"
27,177 to 178,"COc1cc(S[C@H](C[C@H](N)CO)c2sccc2F)c(C#N)cn1.O=C(O)/C=C/C(=O)O [Example 60, 4-[[(1R,3S)-3-Amino-1-(3-fluoro-2-thienyl)-4-hydroxybutyl]thio]-6-methoxy-3-pyridinecarbonitrile (E)-butenedioate salt]"
28,111 to 115,"N#Cc1cc(F)c(Cl)cc1O[C@H](C[C@H](N)CO)c1ccsc1.O=C(O)C(=O)O [Example 54, 2-[[3-(3S)-Amino-4-hydroxy-1(R)-(3-thienyl)butyl]oxy]-4-chloro-5-fluorobenzonitrile ethanedioate]"
29,147 to 149,"N#Cc1ccc(CO)nc1S[C@H](C[C@H](N)CO)c1ccccc1.O=C(O)/C=C/C(=O)O [Example 21, 2-[[(1R,3S)-3-Amino-4-hydroxy-1-phenylbutyl]thio]-6-(hydroxymethyl)-3-pyridinecarbonitrile (E)-butenedioate]"
30,150 to 152,"N#Cc1ccc(C(F)(F)F)nc1OC(C[C@H](N)CO)c1ccno1.O=C(O)/C=C/C(=O)O (stereo partly drawn) [Example 52, 2-[[(3S)-3-Amino-4-hydroxy-1-(5-isoxazolyl)butyl]oxy]-6-(trifluoromethyl)-3-pyridinecarbonitrile, (E)-butenedioate]"
